Measurements reported in the NIST ThermoML archive (doi:10.1021/acs.jced.8b00135).
± gives the expanded uncertainty stated by the source.

Key:
[1] = refractive index (Na D-line) (dimensionless); settings: 96.5 kPa, Liquid, Standard Abbe refractometry
[2] = 96.5 kPa, Liquid, Capillary tube (Ostwald / Ubbelohde) method

Cc1ccccc1O [2-methylphenol]
Settings | refractive index, 288.15 K | refractive index, 293.15 K | refractive index, 298.15 K | refractive index, 303.15 K | refractive index, 308.15 K | viscosity, 288.15 K [mPa·s] | viscosity, 293.15 K [mPa·s] | viscosity, 298.15 K [mPa·s] | viscosity, 303.15 K [mPa·s] | viscosity, 308.15 K [mPa·s]
[1] | 1.5407 ± 0.008 | 1.5392 ± 0.008 | 1.5382 ± 0.008 | 1.5362 ± 0.008 | 1.5336 ± 0.008 | – | – | – | – | –
[2] | – | – | – | – | – | 13.28 ± 0.31 | 9.68 ± 0.23 | 7.76 ± 0.17 | 6.575 ± 0.15 | 5.566 ± 0.12
